Values of other authors in article PMC12525602, “Identification of Selective α-Glucosidase Inhibitors via Virtual Screening with Machine Learning” (Molecules, 2025).

Test system: α-glucosidase
Conditions: Table S5 modeling dataset; activity label 1 = active, 0 = inactive; cited from earlier work

Compound | activity
O=C(O)C1(O)C[C@@H](O)C(O)[C@H](O)C1 (some centres unmarked) [compound 91] | 0
COc1cc(/C=C2\CC(=O)N(C(=O)CN3CCOCC3)C2=O)ccc1O [compound 137] | 0
Brc1cccc(CSc2nnc(COc3cccc4cccnc34)o2)c1 [compound 99] | 0
Clc1ccc(CSc2nnc(COc3cccc4cccnc34)o2)c(Cl)c1 [compound 111] | 0
C[C@@H]1O[C@@H](Oc2c(-c3ccc(O)cc3)oc3cc(O)cc(O)c3c2=O)[C@H](O)[C@H](O)[C@H]1O [compound 117] | 0
COc1ccccc1Nc1nnc(-c2cc3cc(C#N)ccc3[nH]2)s1 [compound 102] | 0
c1ccc(CSc2nnc(COc3cccc4cccnc34)o2)cc1 [compound 116] | 0
CCCCCCCC/C=C\CCCCCCCCCC(=O)O [compound 98] | 0
CC1CCN(c2ccc(/C=N/Nc3nc(-c4ccccc4)cs3)cc2)CC1 [compound 112] | 0

Same assay, conditions: activity label in the 300-compound modeling dataset (Table S5); 1 = active, 0 = inactive; cited from earlier work

Compound | activity
COc1ccc(/C(CSc2nnc3c(n2)[nH]c2ccccc23)=N\c2nnc(-c3ccc([N+](=O)[O-])cc3)s2)cc1 [compound 217] | 1
Oc1c(Cl)cc(Cl)cc1-c1nnc(/N=C(/CSc2nnc3c(n2)[nH]c2ccccc23)c2ccc(-c3ccccc3)cc2)s1 [compound 221] | 1
Cc1ccc(-c2cc(C(F)(F)F)nn2-c2ccc(S(=O)(=O)NC(=O)c3cccc([N+](=O)[O-])c3)cc2)cc1 [compound 200] | 1
Oc1cccc(-c2cc3cccc(Br)c3o2)c1 [compound 209] | 1
O=C(NNS(=O)(=O)c1ccc(Cl)cc1)c1cc2cc(F)ccc2[nH]1 [compound 191] | 1
COc1ccc(Br)cc1-c1nnc(/N=C(/CSc2nnc3c(n2)[nH]c2ccccc23)c2ccccc2[N+](=O)[O-])s1 [compound 199] | 1
Oc1cc(O)cc(-c2cc3cccc(Cl)c3o2)c1 [compound 212] | 1
O=C1CC(c2ccc(O)cc2)Oc2cc(O)cc(O)c21 (centres unmarked) [compound 211] | 1
O=[N+]([O-])c1ccccc1-c1nnc(/N=C(/CSc2nnc3c(n2)[nH]c2ccccc23)c2ccc(-c3ccccc3)cc2)s1 [compound 223] | 1
COc1ccc([C@@H]2CC(=O)c3c(O)cc(O[C@@H]4O[C@H](CO[C@@H]5O[C@@H](C)[C@H](O)[C@@H](O)[C@H]5O)[C@@H](O)[C@H](O)[C@H]4O)cc3O2)cc1O [compound 185] | 1
Cc1ccc(-c2csc(N/N=C/c3ccc(N4CCC(C)CC4)cc3)n2)cc1 [compound 186] | 1
CC(C)(C)c1ccc(-c2csc(N/N=C/c3ccccc3OCc3cc4ccccc4oc3=O)n2)cc1 [compound 215] | 1

Same assay, conditions: activity label of the 300-compound modeling dataset, Table S5; cited from earlier work

Compound | activity
c1ccc(-c2cnc3ccccc3n2)cc1 [compound 278] | 1
O=C(COc1c(I)cc(Cl)c2cccnc12)c1ccc(Cl)cc1Cl [compound 276] | 1
COc1ccccc1/C(CSc1nnc2c(n1)[nH]c1ccccc12)=N\c1nnc(-c2ccc(Cl)c(Cl)c2)s1 [compound 243] | 1
Oc1cc(O)cc(-c2cc3cccc(Br)c3o2)c1 [compound 232] | 1
Cc1ccccc1Cn1cc(COc2ccc(/C=N/N=C3\C(=O)Nc4ccccc43)cc2)nn1 [compound 263] | 1
Brc1ccc(CNc2cccc(-c3nc4ccccc4[nH]3)c2)cn1 [compound 254] | 1

Same assay, conditions: activity label of the modeling dataset (Table S5), α-glucosidase; 1 = active, 0 = inactive; cited from earlier work

Compound | activity
N#Cc1c(-c2ccncc2)cc(-c2cccc(Cl)c2)c(C#N)c1N [compound 36] | 0
COc1ccc(-n2cc(CSc3nnc(COc4cccc5cccnc45)o3)nn2)cc1 [compound 17] | 0
Cc1ccccc1Nc1nnc(-c2cc3cc(C#N)ccc3[nH]2)s1 [compound 14] | 0
Cc1ccc(-c2cc(-c3cccnc3)c(C#N)c(N)c2C#N)cc1 [compound 6] | 0
Brc1ccc(Cn2cc(CSc3nnc(COc4cccc5cccnc45)o3)nn2)cc1 [compound 33] | 0
N#Cc1c(-c2ccc(Cl)cc2)cc(-c2ccccn2)c(C#N)c1N [compound 21] | 0
O=C(c1ccccc1)c1ccc2nc(-c3ccccc3O)[nH]c2c1 [compound 30] | 0
N[C@@H](Cc1ccccc1)C(=O)O [compound 39] | 0

Same assay, conditions: activity label of the modeling dataset, Table S5 (1 = active, 0 = inactive); cited from earlier work

Compound | activity
Brc1ccc(-n2cc(CSc3nnc(COc4cccc5cccnc45)o3)nn2)cc1 [compound 81] | 0
Clc1cccc(Cl)c1-n1cc(CSc2nnc(COc3cccc4cccnc34)o2)nn1 [compound 71] | 0
O=c1c(O[C@@H]2O[C@H](CO)[C@H](O)[C@H](O)[C@H]2O)c(-c2ccc(O)cc2)oc2cc(O)cc(O)c12 [compound 65] | 0
CC(C)CCC(=O)C1(O)C(O)=C(C(=O)CC(C)C)C(=O)C1CCC(C)C (centres unmarked) [compound 66] | 0
N#Cc1c(-c2ccc([N+](=O)[O-])cc2)cc(-c2cccnc2)c(C#N)c1N [compound 75] | 0
Fc1cccc(CSc2nnc(COc3cccc4cccnc34)o2)c1 [compound 47] | 0
Cc1ccc(-c2csc(N/N=C/c3ccc(N4CCCC(C)C4)cc3)n2)cc1 (centres unmarked) [compound 68] | 0
Clc1ccc(Cn2cc(CSc3nnc(COc4cccc5cccnc45)o3)nn2)c(Cl)c1 [compound 61] | 0
CC(C)=CCSc1nnc(COc2cccc3cccnc23)o1 [compound 86] | 0

Same assay, conditions: activity label of the modeling dataset, Table S5; cited from earlier work

Compound | activity
O=[N+]([O-])c1cccc(/C(CSc2nnc3c(n2)[nH]c2ccccc23)=N\c2nnc(-c3cc(Cl)cc(Cl)c3O)s2)c1 [compound 180] | 1
COc1ccc(/C(CSc2nnc3c(n2)[nH]c2ccccc23)=N\c2nnc(-c3cc(Br)ccc3OC)s2)cc1 [compound 173] | 1
COc1cc(-c2oc3cc(O)cc(O)c3c(=O)c2O)ccc1O [compound 161] | 1
O=c1c(O[C@@H]2O[C@H](CO)[C@@H](O)[C@H](O)[C@H]2O)c(-c2ccc(O)c(O)c2)oc2cc(O)cc(O)c12 [compound 159] | 1
CC(C)C1=CC2=CC[C@@H]3[C@](C)(CCC[C@@]3(C)C(=O)O)[C@H]2CC1 [compound 174] | 1
O=C(NNS(=O)(=O)c1ccc(C(F)(F)F)cc1)c1cc2cc(F)ccc2[nH]1 [compound 150] | 1
C[C@@H]1O[C@@H](Oc2c(-c3ccc(O)c(O)c3)oc3cc(O)cc(O)c3c2=O)[C@H](O)[C@H](O)[C@H]1O [compound 175] | 1
N#Cc1ccc2[nH]c(-c3nnc(Nc4ccccc4F)s3)cc2c1 [compound 184] | 1

Same assay, conditions: activity label of the modeling dataset, sheet Table S5; 1 = active, 0 = inactive; cited from earlier work

Compound | activity
Clc1ccc(-c2cnc3ccccc3n2)cc1Cl [compound 295] | 1
Clc1ccc(-c2cnc3ccccc3n2)c(Cl)c1 [compound 283] | 1
Cn1ccnc1SC(=O)c1ccc(-c2cccc(Cl)c2)o1 [compound 298] | 1
O=[N+]([O-])c1ccc(-c2cnc3ccccc3n2)cc1 [compound 286] | 1
Cc1ccc(-n2cc(/C=N\NC(=O)Nc3ccccc3)c(-c3ccc([N+](=O)[O-])cc3)n2)cc1 [compound 299] | 1
CC(C)=CCn1c(=O)oc2c(C(=O)/C=C/c3ccc(O)c(F)c3)cccc21 [compound 293] | 1
COc1ccc(/C=N/N=C(/C)c2ccc([N+](=O)[O-])cc2)c(OC)c1 [compound 291] | 1
